Experimental data reported in US20240228504A1, “SUBSTITUTED TRICYCLIC AMIDES, ANALOGUES THEREOF, AND METHODS USING SAME” (Arbutus Biopharma Corporation, priority 2020, published 2024).

tested on: HBV rcDNA in HepDE19 cells; assay: HepDE19 assay with bDNA quantitation of HBV rcDNA; assay type: cell-based, hepatitis B virus; conditions: HepDE19 assay, inhibition of rcDNA formation, bDNA quantitation; read-out: DE-19bDNA EC50

Row | Compound | EC50
1 | CN(C(=O)c1cc2ccccn2c1)C1CNCc2[nH]c(=O)c3cc(F)c(F)cc3c21 (single isomer, unassigned) [Compound 507, N-(8,9-Difluoro-6-oxo-1,2,3,4,5,6-hexahydrobenzo[c][1,7]naphthyridin-1-yl)-N-methylindolizine-2-carboxamide] | 60 nM
2 | CN(C(=O)c1cc2c(Cl)cccn2c1)C1CNCc2[nH]c(=O)c3cc(F)c(F)cc3c21 (single isomer, unassigned) [Compound 508, 8-Chloro-N-(8,9-Difluoro-6-oxo-1,2,3,4,5,6-hexahydrobenzo[c][1,7]naphthyridin-1-yl)-N-methylindolizine-2-carboxamide] | 11600 nM
3 | CN(C(=O)c1cc2c(Cl)cccn2c1)C1CNCc2[nH]c(=O)c3cc(F)c(F)cc3c21 (single isomer, unassigned) [Compound 509, 8-Chloro-N-(8,9-Difluoro-6-oxo-1,2,3,4,5,6-hexahydrobenzo[c][1,7]naphthyridin-1-yl)-N-methylindolizine-2-carboxamide] | 10 nM
4 | CN(C(=O)C1Cc2c(F)cc(F)cc2N1)C1COCc2[nH]c(=O)c3cc(F)c(F)cc3c21 (stereo not shown) [Compound 13, N-(8,9-Difluoro-6-oxo-1,4,5,6-tetrahydro-2H-pyrano[3,4-c]isoquinolin-1-yl)-4,6-difluoro-N-methylindoline-2-carboxamide] | 12000 nM
5 | CN(C(=O)C1Cc2c(F)cc(F)cc2N1)C1COCc2[nH]c(=O)c3cc(F)c(F)cc3c21 (stereo not shown) [Compound 14, N-(8,9-Difluoro-6-oxo-1,4,5,6-tetrahydro-2H-pyrano[3,4-c]isoquinolin-1-yl)-4,6-difluoro-N-methylindoline-2-carboxamide] | 40 nM
6 | CN(C(=O)C1Cc2c(F)cc(F)cc2N1)C1COCc2[nH]c(=O)c3cc(F)c(F)cc3c21 (stereo not shown) [Compound 15, N-(8,9-Difluoro-6-oxo-1,4,5,6-tetrahydro-2H-pyrano[3,4-c]isoquinolin-1-yl)-4,6-difluoro-N-methylindoline-2-carboxamide] | 960 nM
7 | CN(C(=O)C1Cc2c(F)cc(F)cc2N1)C1COCc2[nH]c(=O)c3cc(F)c(F)cc3c21 (stereo not shown) [Compound 16, N-(8,9-Difluoro-6-oxo-1,4,5,6-tetrahydro-2H-pyrano[3,4-c]isoquinolin-1-yl)-4,6-difluoro-N-methylindoline-2-carboxamide] | 20 nM
8 | CN(C(=O)C1Nc2ccccc2C1(C)C)C1COCc2[nH]c(=O)c3cc(F)c(F)cc3c21 (stereo not shown) [Compound 57, N-(8,9-Difluoro-6-oxo-1,4,5,6-tetrahydro-2H-pyrano[3,4-c]isoquinolin-1-yl)-N,3,3-trimethylindoline-2-carboxamide] | 23000 nM
9 | CN(C(=O)C1Nc2ccccc2C1(C)C)C1COCc2[nH]c(=O)c3cc(F)c(F)cc3c21 (stereo not shown) [Compound 59, N-(8,9-Difluoro-6-oxo-1,4,5,6-tetrahydro-2H-pyrano[3,4-c]isoquinolin-1-yl)-N,3,3-trimethylindoline-2-carboxamide] | 22000 nM

same assay, conditions: Hepatitis B virus, HepDE19, HepDE19 assay, inhibition of rcDNA formation, bDNA quantitation; read-out: DE-19bDNA EC50

Row | Compound | EC50
10 | CN(C(=O)c1cc2cc(F)c(F)cc2[nH]1)[C@H]1COCc2[nH]c(=O)c3cc(F)c(F)cc3c21 [Compound 41, N-(8,9-difluoro-6-oxo-1,4,5,6-tetrahydro-2H-pyrano[3,4-c]isoquinolin-1-yl)-5,6-difluoro-N-methyl-1H-indole-2-carboxamide] | 2200 nM
11 | CN(C(=O)c1cc2cc(F)c(F)cc2[nH]1)[C@@H]1COCc2[nH]c(=O)c3cc(F)c(F)cc3c21 [Compound 42, (S)-N-(8,9-difluoro-6-oxo-1,4,5,6-tetrahydro-2H-pyrano[3,4-c]isoquinolin-1-yl)-5,6-difluoro-N-methyl-1H-indole-2-carboxamide] | 5 nM
12 | CN(C(=O)c1cn2cc(Cl)ccc2n1)[C@@H]1COCc2[nH]c(=O)c3cc(F)c(F)cc3c21 [Compound 51, (S)-6-Chloro-N-(8,9-difluoro-6-oxo-1,4,5,6-tetrahydro-2H-pyrano[3,4-c]isoquinolin-1-yl)-N-methylimidazo[1,2-a]pyridine-2-carboxamide] | 1300 nM
13 | CN(C(=O)c1cn2cc(Cl)ccc2n1)[C@@H]1COCc2[nH]c(=O)c3cc(F)ccc3c21 [Compound 52, (S)-6-Chloro-N-(8-fluoro-6-oxo-1,4,5,6-tetrahydro-2H-pyrano[3,4-c]isoquinolin-1-yl)-N-methylimidazo[1,2-a]pyridine-2-carboxamide] | 4100 nM
14 | CCN(C(=O)c1cn2cc(Cl)ccc2n1)[C@@H]1COCc2[nH]c(=O)c3cc(F)ccc3c21 [Compound 53, (S)-6-Chloro-N-ethyl-N-(8-fluoro-6-oxo-1,4,5,6-tetrahydro-2H-pyrano[3,4-c]isoquinolin-1-yl)imidazo[1,2-a]pyridine-2-carboxamide] | 2500 nM
15 | CN(C(=O)C1Nc2ccccc2C1(C)C)C1COCc2[nH]c(=O)c3cc(F)c(F)cc3c21 (stereo not shown) [Compound 56, N-(8,9-Difluoro-6-oxo-1,4,5,6-tetrahydro-2H-pyrano[3,4-c]isoquinolin-1-yl)-N,3,3-trimethylindoline-2-carboxamide] | 18000 nM
16 | CN(C(=O)c1cc2ccccn2n1)[C@@H]1COCc2[nH]c(=O)c3cc(F)c(F)cc3c21 [Compound 64, (S)-N-(8,9-Difluoro-6-oxo-1,4,5,6-tetrahydro-2H-pyrano[3,4-c]isoquinolin-1-yl)-N-methylpyrazolo[1,5-a]pyridine-2-carboxamide] | 630 nM
17 | CN(C(=O)c1cc2cccnn2c1)[C@@H]1COCc2[nH]c(=O)c3cc(F)c(F)cc3c21 [Compound 65, (S)-N-(8,9-Difluoro-6-oxo-1,4,5,6-tetrahydro-2H-pyrano[3,4-c]isoquinolin-1-yl)-N-methylpyrrolo[1,2-b]pyridazine-6-carboxamide] | 150 nM
18 | CN(C(=O)c1ccc2cccnc2c1)[C@@H]1COCc2[nH]c(=O)c3cc(F)c(F)cc3c21 [Compound 66, (S)-N-(8,9-Difluoro-6-oxo-1,4,5,6-tetrahydro-2H-pyrano[3,4-c]isoquinolin-1-yl)-N-methylquinoline-7-carboxamide] | 2300 nM
19 | CN(C(=O)c1ccc2ncccc2c1)[C@@H]1COCc2[nH]c(=O)c3cc(F)c(F)cc3c21 [Compound 67, (S)-N-(8,9-Difluoro-6-oxo-1,4,5,6-tetrahydro-2H-pyrano[3,4-c]isoquinolin-1-yl)-N-methylquinoline-6-carboxamide] | 1600 nM
20 | CN(C(=O)c1ccc2nncn2c1)[C@@H]1COCc2[nH]c(=O)c3cc(F)c(F)cc3c21 [Compound 70, (S)-N-(8,9-Difluoro-6-oxo-1,4,5,6-tetrahydro-2H-pyrano[3,4-c]isoquinolin-1-yl)-N-methyl-[1,2,4]triazolo[4,3-a]pyridine-6-carboxamide] | 22000 nM
21 | CN(C(=O)c1cnc2ccccc2c1)[C@@H]1COCc2[nH]c(=O)c3cc(F)c(F)cc3c21 [Compound 71, (S)-N-(8,9-Difluoro-6-oxo-1,4,5,6-tetrahydro-2H-pyrano[3,4-c]isoquinolin-1-yl)-N-methylquinoline-3-carboxamide] | 330 nM
22 | CN(C(=O)c1ccc2nccnc2c1)[C@@H]1COCc2[nH]c(=O)c3cc(F)c(F)cc3c21 [Compound 72, (S)-N-(8,9-Difluoro-6-oxo-1,4,5,6-tetrahydro-2H-pyrano[3,4-c]isoquinolin-1-yl)-N-methylquinoxaline-6-carboxamide] | 3800 nM
